The text below walks through data of patent publication US5159081A, “Intermediates of peripherally selective N-carbonyl-3,4,4-trisubstituted piperidine opioid antagonists” (Eli Lilly and Company, priority 1991, dated 1992).

Structures can show the parent of a compound that is named as a salt. Where two headings read alike, the source gives them in different places.

In test [1] the test system is peripheral opioid receptors. The experiment in a line: mouse diarrhea test: precipitated diarrhea in morphine-maintained mice (peripheral opioid activity). The format is in vivo.
Test [2] addresses peripheral opioid receptors (Mus musculus, UniProt P42866). The description is as above. Type of test: in vivo. Conditions: mouse diarrhea test, morphine-maintained mice, subcutaneous or oral, 30 min observation.
Test [3] addresses T1, opioid receptor (Mus musculus, UniProt P42866).
T1 construct: Five CF-1 male mice (Charles River, Portage, MI); from tissue; host or cells: living CF-1 male mice (whole animal, endogenous receptor)
The experiment in a line: in vivo. Set-up: species or system CF-1 male mice. Conditions: sc, mouse writhing test, s.c. 20 min before acetic acid, read-out: AD50 (the source's name).

The target in test [4] is T2, mu receptor (Rattus norvegicus, UniProt P33535).
T2 construct: The brain tissue, rat whole brain minus cerebellum for mu was homogenized; from tissue; host or cells: brain minus cerebellum of male Sprague Dawley rats, homogenate fraction
The test can be described thus: Naloxone [3H] opioid receptor binding assay (mu receptor). Conditions: 20 min; for Ki: rat whole brain minus cerebellum, pH 7.4, 37° C., read-out: Ki. Set-up: species or system rat (male Sprague Dawley).

[5] abbreviates: pH 7.4, read-out: % displacement at 10 nM.
Where [6] appears, read: pH 7.4, read-out: % displacement at 100 nM.
Where [7] appears, read: AD50 mouse writhing / ED50 mouse diarrhea, higher = greater relative peripheral antagonism.
Where [8] appears, read: pH 7.4, 10 nM test compound, [3H]naloxone 0.5 nM, mu receptor, read-out: % displacement at 10 nM.
Where [9] appears, read: pH 7.4, 100 nM test compound, [3H]naloxone 0.5 nM, mu receptor, read-out: % displacement at 100 nM.

T2 sequence (P33535 whole entry): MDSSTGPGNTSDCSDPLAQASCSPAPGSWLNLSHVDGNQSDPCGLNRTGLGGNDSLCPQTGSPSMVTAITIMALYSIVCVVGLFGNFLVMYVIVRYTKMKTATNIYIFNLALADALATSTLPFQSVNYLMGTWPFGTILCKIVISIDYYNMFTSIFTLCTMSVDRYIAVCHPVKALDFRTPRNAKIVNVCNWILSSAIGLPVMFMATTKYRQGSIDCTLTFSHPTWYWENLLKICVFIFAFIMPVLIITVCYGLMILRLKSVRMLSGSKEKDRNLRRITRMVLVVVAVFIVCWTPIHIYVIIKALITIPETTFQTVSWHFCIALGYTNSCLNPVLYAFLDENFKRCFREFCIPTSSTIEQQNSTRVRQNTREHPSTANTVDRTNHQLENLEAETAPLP
T1 sequence (P42866 whole entry): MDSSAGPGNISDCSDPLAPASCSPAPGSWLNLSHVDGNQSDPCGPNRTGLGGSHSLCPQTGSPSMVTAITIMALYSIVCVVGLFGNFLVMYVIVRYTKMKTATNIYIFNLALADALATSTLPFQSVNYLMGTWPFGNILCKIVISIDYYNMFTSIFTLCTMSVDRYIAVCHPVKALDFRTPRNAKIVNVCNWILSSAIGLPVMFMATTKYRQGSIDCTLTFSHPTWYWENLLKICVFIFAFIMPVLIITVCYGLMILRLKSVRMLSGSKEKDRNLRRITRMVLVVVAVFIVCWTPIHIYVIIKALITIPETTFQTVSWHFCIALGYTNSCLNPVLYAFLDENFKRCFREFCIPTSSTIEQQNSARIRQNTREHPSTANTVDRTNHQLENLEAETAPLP
Chain of peripheral opioid receptors (Mus musculus, UniProt P42866) (P42866 whole entry): as above

As for `C[C@H]1CN(CC(Cc2ccccc2)NC(=O)CCCC(=O)O)CC[C@@]1(C)c1cccc(O)c1` (relative stereo) [Example 15, Trans-5-((2-(4-(3-hydroxyphenyl)-3,4-dimethyl-1-piperidinyl)-1-(D-(phenylmethyl)ethyl)amino))-5-oxopentanoic acid monohydrate], the “Ratio (ratio of AD50 to ED50)” value in test [1] (mouse, in vivo) is listed as 50. In addition, the figures for the ED50 in test [2] and in test [3] ([…]) were 0.028 mg/kg and 1.39 mg/kg, respectively. In addition, in test [4] (setting [5]), the inhibition at 0.01 µM worked out at 80%. Besides, in test [4] (setting [6]), the inhibition at 0.1 µM is 99%. Also, in test [4] ([3H]naloxone 0.5 nM), the Ki worked out at 2.96 nM.

Take `C[C@H]1CN(CCN(C(=O)CCC(=O)O)c2ccccc2)CC[C@@]1(C)c1cccc(O)c1` (relative stereo) [Example 19, 4-((2-(Trans-4-(3-hydroxyphenyl)-3,4-dimethyl-1-piperidinyl)ethyl)phenylamino-4-oxobutanoic acid monohydrate]: the “Ratio (ratio of AD50 to ED50)” value in test [1] (setting [7]) is given as 77. In addition, the ED50 in test [2] (0.5 h, read-out: ED50) is 0.082 mg/kg; in test [3] ([…]) it was 6.3 mg/kg. In addition, in test [4] (setting [8]), the inhibition at 0.01 µM stood at 48%. In addition, in test [4] (setting [9]), the inhibition at 0.1 µM came out at 92%.

With `C[C@H]1CN(CCN(C(=O)CC(=O)O)C2CCCCC2)CC[C@@]1(C)c1cccc(O)c1` (relative stereo) [Example 21, 3-(cyclohexyl-(2-(trans-4-(3-hydroxyphenyl)-3,4-dimethyl-1-piperidinyl)ethyl)amino)-3-oxopropanoic acid monohydrate], the “Ratio (ratio of AD50 to ED50)” value in test [1] (setting [7]) worked out at 71. The ED50 in test [2] (0.5 h, read-out: ED50) stood at 0.073 mg/kg; in test [3] ([…]) it was 17.1 mg/kg. Besides, the inhibition at 0.01 µM in test [4] (setting [8]) turned out to be 53%. Moreover, the inhibition at 0.1 µM in test [4] (setting [9]) was found to be 80%.

With `C[C@H]1CN(CCN(C(=O)CCC(=O)O)C2CCCC2)CC[C@@]1(C)c1cccc(O)c1` (relative stereo) [Example 24, 4-(cyclopentyl-2-(trans-4-(3-hydroxyphenyl)-3,4-dimethyl-1-piperidinyl)ethyl)amino)-4-oxobutanoic acid hemihydrate], the “Ratio (ratio of AD50 to ED50)” value in test [1] (setting [7]) stood at 31. Also, the ED50 in test [2] (0.5 h, read-out: ED50) was 0.62 mg/kg; in test [3] ([…]) it was 19.2 mg/kg. Besides, the inhibition at 0.01 µM in test [4] (setting [8]) stood at 48%. Besides, the inhibition at 0.1 µM in test [4] (setting [9]) amounted to 89%.

`CC(C)CCN(CCN1CC[C@@](C)(c2cccc(O)c2)[C@@H](C)C1)C(=O)CCC(=O)O` (relative stereo) [Example 28, 4-(3-methylbutyl-(2-(trans-4-(3-hydroxyphenyl)-3,4-dimethyl-1-piperidinyl)ethyl)amino)-4-oxobutanoic acid monohydrate]: in test [1] (setting [7]), the “Ratio (ratio of AD50 to ED50)” value is on record as > 12. Besides, the ED50 was 0.1 mg/kg in test [2] (0.5 h, read-out: ED50) and > 1.25 mg/kg in test [3] (dose of antagonist that reduced inhibition of writhing by 1.25 mg/kg morphine sulfate to 50%). The inhibition at 0.01 µM in test [4] (setting [8]) turned out to be 67%. In addition, the inhibition at 0.1 µM in test [4] (setting [9]) came out at 100%.

For the molecule `CC(C)CN(CCCN1CC[C@@](C)(c2cccc(O)c2)[C@@H](C)C1)C(=O)CCCC(=O)O` (relative stereo) [Example 29, 5-(2-Methylpropyl-(3-(trans-4-(3-hydroxyphenyl)-3,4-dimethyl-1-piperidinyl)propyl)amino)-5-oxopentanoic acid monohydrate], in test [1] (setting [7]), the “Ratio (ratio of AD50 to ED50)” value turned out to be 7.7. Moreover, the ED50 amounted to 0.99 mg/kg in test [2] (0.5 h, read-out: ED50) and 7.6 mg/kg in test [3] ([…]). In addition, the inhibition at 0.01 µM in test [4] (setting [8]) worked out at 56%. Further, the inhibition at 0.1 µM in test [4] (setting [9]) stood at 88%.

`CCOC(=O)CCCC(=O)N(CCN1CC[C@@](C)(c2cccc(O)c2)[C@@H](C)C1)C1CCCCC1` (relative stereo) [Example 32, 5-(Cyclohexyl-(2-(trans-4-(3-hydroxyphenyl)-3,4-dimethyl-1-piperidinyl)ethyl)amino)-5-oxopentanoic acid ethyl ester monohydrochloride]: the “Ratio (ratio of AD50 to ED50)” value in test [1] (setting [7]) is reported as 59. Also, the ED50 in test [2] (0.5 h, read-out: ED50) worked out at 0.16 mg/kg; in test [3] ([…]), 9.4 mg/kg. Besides, the inhibition at 0.01 µM in test [4] (setting [8]) came to 40%. The inhibition at 0.1 µM in test [4] (setting [9]) is 100%.

`C[C@H]1CN(CCN(C(=O)CC(N)=O)C2CCCCC2)CC[C@@]1(C)c1cccc(O)c1` (relative stereo) [Example 34, N-Cyclohexyl-N-(2-(trans-4-(3-hydroxyphenyl)-3,4-dimethyl-1-piperidinyl)ethyl)propanediamidehydrochloride monohydrate]: the “Ratio (ratio of AD50 to ED50)” value in test [1] (setting [7]) is on record as 21. In addition, the ED50 in test [2] (0.5 h, read-out: ED50) is 0.39 mg/kg; in test [3] ([…]), 8.2 mg/kg. Besides, the inhibition at 0.01 µM in test [4] (setting [8]) was 77%. The inhibition at 0.1 µM in test [4] (setting [9]) was determined as 91%.

On to `CNC(=O)CC(=O)N(CCN1CC[C@@](C)(c2cccc(O)c2)[C@@H](C)C1)C1CCCCC1` (relative stereo) [Example 36, N-Methyl-3-oxo-3-((2-(trans-4-(3-hydroxyphenyl)-3,4-dimethyl-1-piperidinyl)ethyl)cyclohexylamino)propanamidemonohydrochloride monohydrate], for which the “Ratio (ratio of AD50 to ED50)” value in test [1] (setting [7]) was 8. The ED50 in test [2] is 0.39 mg/kg; in test [3] ([…]), 2.9 mg/kg. Moreover, the inhibition at 0.01 µM in test [4] (setting [5]) amounted to 85%. Besides, the inhibition at 0.1 µM in test [4] (setting [6]) was 99%. Moreover, the inhibitory constant (Ki) in test [4] ([3H]naloxone 0.5 nM) came out at 3.01 nM.

With `CCOC(=O)CCC(=O)N(CCN1CC[C@@](C)(c2cccc(O)c2)[C@@H](C)C1)C1CCCCC1` (relative stereo) [Example 71], the “Ratio (ratio of AD50 to ED50)” value in test [1] (setting [7]) came to 13. In addition, the ED50 amounted to 0.29 mg/kg in test [2] and 3.71 mg/kg in test [3] ([…]). The inhibition at 0.01 µM in test [4] (setting [5]) amounted to 78%. Also, the inhibition at 0.1 µM in test [4] (setting [6]) was found to be 96%. Moreover, the inhibition constant Ki in test [4] ([3H]naloxone 0.5 nM) was determined as 3.85 nM.

In the case of `CC(C)COC(=O)CCC(=O)N(CCN1CC[C@@](C)(c2cccc(O)c2)[C@@H](C)C1)C1CCCCC1` (relative stereo) [Example 72], in test [1] (setting [7]), the “Ratio (ratio of AD50 to ED50)” value was found to be 324. In addition, the ED50 came out at 0.017 mg/kg in test [2] (0.5 h, read-out: ED50) and 5.5 mg/kg in test [3] ([…]). In addition, the inhibition at 0.01 µM in test [4] (setting [8]) stood at 73%. The inhibition at 0.1 µM in test [4] (setting [9]) is 96%.

Regarding `C[C@H]1CN(CCN(C(=O)CCC(=O)OCC2CCCCC2)C2CCCCC2)CC[C@@]1(C)c1cccc(O)c1` (relative stereo) [Example 73], in test [1] (setting [7]), the “Ratio (ratio of AD50 to ED50)” value amounted to 54. The ED50 in test [2] (0.5 h, read-out: ED50) came to 0.17 mg/kg; in test [3] ([…]), 9.2 mg/kg. The inhibition at 0.01 µM in test [4] (setting [8]) was 46%. For the same molecule, in test [4] (setting [9]), the inhibition at 0.1 µM stood at 88%.

As to `C[C@H]1CN(CCC(NC(=O)CCCC(=O)O)C2CCCCC2)CC[C@@]1(C)c1cccc(O)c1` (stereo in doubt) [Example 5, 5-((3-(trans-4-(3-hydroxyphenyl)-3,4-dimethyl-1-piperidinyl)-1-cyclohexylpropyl)amino)-5-oxo-pentanoic acid monohydrochloride monohydrate], the “Ratio (ratio of AD50 to ED50)” value in test [1] (setting [7]) is given as > 1666. Moreover, the ED50 in test [3] ([…]) was > 20 mg/kg. In test [4] (setting [5]), the inhibition at 0.01 µM was determined as 100%. In test [4] (setting [6]), the inhibition at 0.1 µM is 100%. Further, the inhibition constant Ki in test [4] ([3H]naloxone 0.5 nM) is 0.3 nM.

For the molecule `CC(=O)NC(CCN1CC[C@@](C)(c2cccc(O)c2)[C@@H](C)C1)c1ccccc1` (stereo in doubt) [Example 6, N-(3-(trans-4-(3-hydroxyphenyl)-3,4-dimethyl-1-piperidinyl)-1-phenylpropyl)acetamide], the “Ratio (ratio of AD50 to ED50)” value in test [1] (setting [7]) was 428. Besides, in test [3] ([…]), the ED50 turned out to be 30 mg/kg. Besides, the inhibition at 0.01 µM in test [4] (setting [5]) came out at 82%. Besides, in test [4] (setting [6]), the inhibition at 0.1 µM came out at 94%. Further, the Ki in test [4] ([3H]naloxone 0.5 nM) was 6.49 nM.

Take `C[C@H]1CN(CCC(CC2CCCCC2)NC(=O)CCCC(=O)O)CC[C@@]1(C)c1cccc(O)c1` (stereo in doubt) [Example 7, 5-((1-(cyclohexylmethyl)-3-(trans-4-(3-hydroxyphenyl)-3,4-dimethyl-1-piperidinyl)propyl)amino)-5-oxopentanoic acid monohydrochloride monohydrate]: in test [1] (setting [7]), the “Ratio (ratio of AD50 to ED50)” value is listed as 19. The ED50 in test [3] ([…]) amounted to 8.62 mg/kg. In addition, the inhibition at 0.01 µM in test [4] (setting [5]) is 99%. Also, in test [4] (setting [6]), the inhibition at 0.1 µM came to 100%. Further, the inhibition constant (Ki) in test [4] ([3H]naloxone 0.5 nM) amounted to 0.63 nM.

For the molecule `C[C@H]1CN(CC(Cc2ccccc2)NC(=O)CCC(=O)O)CC[C@@]1(C)c1cccc(O)c1` (stereo partly drawn) [Example 14], the “Ratio (ratio of AD50 to ED50)” value in test [1] (setting [7]) was determined as 656. For the same molecule, in test [3] ([…]), the ED50 was determined as 21 mg/kg. Also, the inhibition at 0.01 µM in test [4] (setting [5]) stood at 20%. The inhibition at 0.1 µM in test [4] (setting [6]) came out at 64%. For the same molecule, the Ki in test [4] ([3H]naloxone 0.5 nM) worked out at 32.4 nM.

On to `COC(=O)[C@H](Cc1ccccc1)NC(=O)CCC(=O)N(CCN1CCC(C)(c2cccc(O)c2)C(C)C1)C1CCCCC1` (stereo partly drawn) [Example 41, 2-((1,4-dioxo-4-(cyclohexyl-(2-(trans-4-(3-hydroxyphenyl)-3,4-dimethyl-1-piperidinyl)ethyl)amino)butyl)-amino)-3-phenylpropanoic acid, methyl ester], for which the “Ratio (ratio of AD50 to ED50)” value in test [1] (setting [7]) was determined as 74. Besides, the ED50 in test [3] ([…]) stood at 32 mg/kg. The inhibition at 0.01 µM in test [4] (setting [5]) was determined as 87%. In addition, the inhibition at 0.1 µM in test [4] (setting [6]) stood at 99%. For the same molecule, the inhibition constant Ki in test [4] ([3H]naloxone 0.5 nM) amounted to 2.45 nM.

Take `COC(=O)CCCC(=O)N[C@@H](CC1CCCCC1)CN1CC[C@](C)(c2cccc(O)c2)[C@H](C)C1` [Example 49]: the ED50 in test [2] was > 10 mg/kg; in test [3] ([…]), 9.9 mg/kg. Also, the inhibition at 0.01 µM in test [4] (setting [5]) stood at 83%. The inhibition at 0.1 µM in test [4] (setting [6]) was found to be 97%. Besides, in test [4] ([3H]naloxone 0.5 nM), the inhibitory constant (Ki) came out at 8.19 nM.
